Source: patent US20220023386A1, “METHOD FOR THE TREATMENT OR PREVENTION OF OSTEOARTHRITIS” (Chondropeptix B.V., priority 2016, published 2022)

B1: bone morphogenetic protein-7 (protein)
chain: STGSKQRSQNRSKTPKNQEALRMANVAENSSSDQRQACKKHELYVSFRDLGWQDWIIAPEGYAAYYCEGECAFPLNSYMNATNHAIVQTLVHFINPETVPKPCCAPTQLNAISVLYFDDSSNVILKKYRNMVVRACGCH
modifications: homo sapiens
notes: full-length recombinant human BMP-7, mature polypeptide of 139 amino acids

Tests used:
[1] = tested on: Isolated chondrocytes from OA patients; assay: Treatment of isolated chondrocytes from OA patients, gene expression via qRT-PCR; assay type: cell-based, human; conditions: 1 nM, 24 h, n=6
Protocol: Isolated chondrocytes from OA patients (n=6) were treated with BMP-7 (1 nM) or the 12-mer peptide according to SEQ ID NO: 16 (1 nM) for 24 h. Pro-chondrogenic (FIG. 9A) and hypertrophic (FIGS. 9B, 9C and 9D) gene expression was determined via qRT-PCR and normalized for 28S rRNA levels.

[2] = tested on: cartilage explants from OA patient's knee articular cartilage; assay: Treatment of cartilage explants, hypertrophic gene expression via qRT-PCR; assay type: cell-based, human; conditions: BMP-7 1 nM, SEQ ID NO: 16 10 nM, 24 h
Protocol: 4 mm2 cartilage explants were taken from non-lesion areas of OA patient's knee articular cartilage (n=5) and randomly assigned to different experimental treatment conditions (4 explants per treatment group). After a 24 h equilibration period the explants were treated with BMP-7 (1 nM) or the 12-mer peptide according to SEQ ID NO: 16 (10 nM) for 24 h. Hypertrophic gene expression was determined via qRT-PCR and normalized for 28S rRNA levels. After treatment with BMP-7 or the 12 mer we observed a downregulation of pro-hypertrophic genes, such as Col10a1 (FIG. 10A) and MMP13 (FIG. 10B).

[3] = tested on: OA articular chondrocytes; assay: Expression of OA chondrocyte phenotype marker genes by RT-qPCR after peptide exposure; assay type: cell-based, human; conditions: independent of the tested concentration (1000, 100, 10 and 1 nM were tested)
Cartilage explants = assay: Safranin-O staining of glycosaminoglycans in cartilage explants; assay type: cell-based, human; conditions: 14 days; BMP-7 1 nM, SEQ ID NO: 8 10 nM; 2 patients
Protocol: Cartilage explants obtained from 2 patients were cultured for 14 days in the presence of BMP-7 (1 nM) or BMP-7 mimicking peptide […] (SEQ ID NO: 8) at 10 nM. Glycosaminoglycans (GAGs), an important component of the extracellular matrix (ECM), were stained with Safranin-O (in red) and other tissues are counterstained with Fast green (in green/blue).

[4] = tested on: Cartilage explants from OA patient's knee cartilage; assay: PGE2 levels via ELISA in cartilage explants; assay type: cell-based, human; conditions: 14 days; BMP-7 1 nM, peptides 10 nM
Protocol: Cartilage explants of 3 mm^2 were taken from OA patient's knee cartilage (n=6) and treated with BMP-7 (1 nM), with peptide […] (SEQ ID NO: 8) at 10 nM or a scrambled irrelevant control peptide (10 nM) for 14 days. Prostaglandin E2 (PGE2) levels, a pro-hypertrophic factor, were determined via an ELISA.

[5] = tested on: Synovial tissue, Hoffa's fat pad tissue and meniscus tissue samples from OA patients; assay: PGE2 levels via ELISA in synovial, Hoffa's fat pad and meniscus tissue samples; assay type: cell-based, human; conditions: 24 h; BMP-7 1 nM, peptides 10 nM
Protocol: Synovial tissue samples from OA patients (n=6) were treated with BMP-7 (1 nM), with peptide […] (SEQ ID NO: 8) at 10 nM or a scrambled irrelevant control peptide (10 nM) for 24 h. PGE2 levels were determined via an ELISA.
Hoffa's fat pad tissue samples from OA patients (n=6) were treated with BMP-7 (1 nM) with peptide […] (SEQ ID NO: 8) at 10 nM or a scrambled irrelevant control peptide (10 nM) for 24 h. PGE2 levels were determined via an ELISA.
Meniscus tissue samples from OA patients (n=6) were treated with BMP-7 (1 nM) with peptide […] (SEQ ID NO: 8) at 10 nM or a scrambled irrelevant control peptide (10 nM) for 24 h. PGE2 levels were determined via an ELISA.

[6] = tested on: OA articular chondrocytes; assay: Expression of OA chondrocyte phenotype marker genes by RT-qPCR after peptide exposure; assay type: cell-based, human; parameters: key: [—] denotes the absence of a significant effect or a significantly decreased expression of chondrogenic marker BAPX1/NKX3.2 or an increased expression of OA chondrocyte phenotypic markers ALP, MMP13, ADAMTS5, COX2, COL10A and RUNX2 in OA articular chondrocytes, in comparison to untreated OA articular chondrocyts; conditions: Table 1, 20-mer peptides with native cysteines; vs untreated OA articular chondrocytes
Protocol: The action of 20-mer peptides (10 nM) of SEQ ID NO: 2-15 (peptides with 1 amino acids intervals (19 amino acid overlap)) and SEQ ID NO:49 on the expression of the indicated genes was determined on a validated pool of passage 2 OA human articular chondrocytes (n=18) and compared to full-length recombinant BMP-7 (1 nM). Samples were harvested after 24 hours and analyzed for indicated genes by RT-qPCR (corrected for 28S rRNA expression and relative to control conditions (no peptide exposure)). In the graphs, numbers on the x-axis represent individual peptides according to their SEQ ID NO:, error bars represent mean±SEM, statistical differences were calculated (one-way ANOVA with bonferroni correction) to control condition. *=p<0.05 lower than control condition for COL10A1, ALP, RUNX2, COX-2, MMP13 and ADAMTS5 and higher than control condition for BAPX1/NKX3.2. Random peptide is a peptide according to SEQ ID NO: 49 with amino acid sequence […].

[7] = tested on: OA articular chondrocytes; assay: as above; assay type: cell-based, human; parameters: key: [—] denotes the absence of a significant effect or a significantly decreased expression of chondrogenic marker BAPX1/NKX3.2 or an increased expression of OA chondrocyte phenotypic markers ALP, MMP13, ADAMTS5, COX2, COL10A and RUNX2 in OA articular chondrocytes, in comparison to untreated OA articular chondrocyts; conditions: Table 1, 20-mer peptides with native cysteines; vs untreated OA articular chondrocytes; remark: listed apart in the source
OA patients = conditions: intra-articular injection, phase-1; cited from earlier work
OA = conditions: intra-articular administration, rats; cited from earlier work
[8] = tested on: Osteoarthritic chondrocytes; assay: BMP-7 rescue of OA-associated chondrocyte phenotype (FIG. 1); assay type: cell-based
Protocol: Osteoarthritic chondrocytes display a typical phenotype that is characterized by decreased expression of SOX9, COL2A1, ACAN and BAPX1/NKX3.2 and an increased expression of RUNX2, COL10A1, ALP, MMP13, ADAMTSS, COX-2 and IL-6 mRNAs (see left panel).
Functional ALP enzyme activity in cell lysates and PGE2 secretion in the culture medium was also normalized upon BMP-7 treatment of OA chondrocytes (right panel).
Expression of indicated mRNAs was determined by RT-qPCR, relatively to control conditions (normalized for 28S rRNA expression). In graphs, error bars represent mean±SEM, statistical differences were calculated as compared to healthy condition. *=p<0.05.

[9] = BMP-7 treatment of OA chondrocytes

| Molecule | COL10A1 gene expression (pro-hypertrophic) [1] | COX-2 gene expression (pro-hypertrophic) [1] | Col2a1 gene expression (pro-chondrogenic) [1] | RUNX2 gene expression (pro-hypertrophic) [1] | Col10a1 gene expression [2] | MMP13 gene expression [2] | Safranin-O intensity (GAGs) compared to control (Cartilage explants) | PGE2 levels in the cartilage [4] | PGE2 levels in the surrounding tissues (synovial, Hoffa's fat pad, meniscus) [5] | ADAMTS5 expression [6] | ALP expression [7] | BAPX1/NKX3.2 expression [7] | COL10A expression [7] | COX-2 expression [7] | MMP13 expression [7] | RUNX2 expression [7] | other results |
| --- | --- | --- | --- | --- | --- | --- | --- | --- | --- | --- | --- | --- | --- | --- | --- | --- | --- |
| YSEGESAFPLNS (homo sapiens) [SEQ ID NO: 16] | downregulation | downregulation | upregulation | downregulation | downregulation | downregulation |  |  |  |  |  |  |  |  |  |  |  |
| GYAAYYSEGESAFPLNSYMN (homo sapiens) [SEQ ID NO: 8] |  |  |  |  |  |  | increased Safranin-O intensity | reduce PGE2 levels | reduce PGE2 levels |  |  |  |  |  |  |  | suppression of the OA chondrocyte phenotype [3]: efficiently suppressed |
| 42 (VHFINPETVPKPCCAPTQLN; homo sapiens) [compound 42] |  |  |  |  |  |  |  |  |  | — | — | — | — | — | — | — |  |
| 39 (ACKKHELYVSFRDLGWQDWI; homo sapiens) [compound 39] |  |  |  |  |  |  |  |  |  | — | — | — | — | — | — | — |  |
| B1 | downregulation | downregulation | upregulation | downregulation | downregulation | downregulation | increased Safranin-O intensity | reduce PGE2 levels | reduce PGE2 levels |  |  |  |  |  |  |  | adverse events (OA patients): no serious adverse events; OA development and progression (OA): protects against OA development and delays progression of OA; concentration at which OA chondrocyte-phenotype suppressive action is most pronounced [8]: around 1 nM; OA-associated chondrocyte phenotype (expression of SOX9, COL2A1, ACAN, BAPX1/NKX3.2, RUNX2, COL10A1, ALP, MMP13, ADAMTS5, COX-2, IL-6 mRNAs) ([8]; BMP-7 1 nM): able to rescue; effects on the chondrocyte phenotype at high concentration ([8]; BMP-7 concentrations higher than 1 nM (eg 10 nM or 100 nM)): opposite and negative effects; Functional ALP enzyme activity in cell lysates [8, 9]: normalized; PGE2 secretion in the culture medium [8, 9]: normalized |
